Data published in article PMC6904214, “A novel lineage of candidate pheromone receptors for sex communication in moths” (eLife, 2019).

Molecular target: T1, SlitOR5/SlitOrco (Spodoptera littoralis, UniProt A0A5J6NJF6)
T1 construct: full-length open reading frames (SlitOr5 1191 bp) in pCS2+, cRNAs co-injected in Xenopus oocytes; heteromer with co-receptor Orco; with Odorant receptor coreceptor
T1 sequence (A0A5J6NJF6 1-397): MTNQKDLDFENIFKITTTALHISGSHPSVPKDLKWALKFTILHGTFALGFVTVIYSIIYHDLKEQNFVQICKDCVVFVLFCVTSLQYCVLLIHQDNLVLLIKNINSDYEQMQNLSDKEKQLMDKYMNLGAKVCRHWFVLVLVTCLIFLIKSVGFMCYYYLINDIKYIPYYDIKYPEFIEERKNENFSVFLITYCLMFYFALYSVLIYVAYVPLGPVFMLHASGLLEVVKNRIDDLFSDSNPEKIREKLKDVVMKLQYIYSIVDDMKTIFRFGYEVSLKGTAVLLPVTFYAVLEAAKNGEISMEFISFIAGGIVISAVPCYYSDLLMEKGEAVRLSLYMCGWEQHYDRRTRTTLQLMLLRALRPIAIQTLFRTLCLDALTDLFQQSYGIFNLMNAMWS
T1 sequence (B6C755 1-473 partner): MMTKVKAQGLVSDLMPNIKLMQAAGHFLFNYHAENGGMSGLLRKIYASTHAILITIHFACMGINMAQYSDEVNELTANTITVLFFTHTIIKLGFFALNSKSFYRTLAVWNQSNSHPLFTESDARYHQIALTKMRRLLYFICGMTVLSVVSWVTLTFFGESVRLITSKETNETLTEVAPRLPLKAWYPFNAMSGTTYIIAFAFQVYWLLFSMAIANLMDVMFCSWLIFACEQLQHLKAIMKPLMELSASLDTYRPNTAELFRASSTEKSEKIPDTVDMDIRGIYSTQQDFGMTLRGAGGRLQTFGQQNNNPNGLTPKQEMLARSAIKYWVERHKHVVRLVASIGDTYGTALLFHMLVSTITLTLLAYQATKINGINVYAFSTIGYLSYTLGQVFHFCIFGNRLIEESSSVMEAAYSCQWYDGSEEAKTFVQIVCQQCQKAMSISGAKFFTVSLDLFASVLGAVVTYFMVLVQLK
Assay: two-electrode voltage clamp, inward current in Xenopus oocytes
Type: cell-based

`CC/C=C/C=C\CCCCCCCCOC(C)=O` [(Z,E)-9,11-14:OAc, (Z,E)-9,11-tetradecadienyl acetate] gave an EC50 of 171 nM.
